Where no end group is shown, it is not given here.
Columns and labels:
A. baumannii KCTC 2508 = format: cell-based, Acinetobacter baumannii; conditions: microdilution, NB, 18 to 24 h, 37°C, three independent experiments
Method: (§1) Bacterial cells were cultured at 37°C in the appropriate culture media with shaking (180 rpm). Luria-Bertani broth (LB) (244620; BD Difco) was used for E. coli ATCC 25922, ASEC strains, and B. subtilis KCTC 2217. Nutrient broth (NB) (234000; BD Difco) was used for P. aeruginosa ATCC 27853, S. Typhimurium KCTC 1926, and A. baumannii KCTC 2508. Tryptic soy broth (TSB) (211825; BD Difco) was used for S. aureus ATCC 25923. Finally, brain heart infusion (BHI) (237500; BD Difco) was used for L. monocytogenes KCTC 3710. The antimicrobial activity of each peptide was determined using microdilution assays. To this end, 2-fold serial dilution series of each peptide (from 1 to 64 μM) were added to duplicate media with 10 mM sodium phosphate buffer (pH 7.4). Fifty microliters of the peptide and antibiotic solution was added to each well of a 96-well plate (32096, surface nontreatment; SPL Life Sciences). Then, 50 μL of 2 × 10^5 CFU mL^−1 of bacteria was added to each well, and the samples were incubated for 18 to 24 h without shaking at 37°C.

elastase = target: T1, elastase (Homo sapiens, UniProt P08246); assay: Resistance to proteolytic degradation, RP-HPLC; format: in vitro ADME; conditions: 50 μg PN5, 10 μg mL^−1 elastase, 0.1 M Tris-HCl pH 8.0, 37°C, 0 to 540 min; RP-HPLC C18, 214 nm
T1 construct: purchased Sigma-Aldrich 324681
T1 sequence (P08246 30-267): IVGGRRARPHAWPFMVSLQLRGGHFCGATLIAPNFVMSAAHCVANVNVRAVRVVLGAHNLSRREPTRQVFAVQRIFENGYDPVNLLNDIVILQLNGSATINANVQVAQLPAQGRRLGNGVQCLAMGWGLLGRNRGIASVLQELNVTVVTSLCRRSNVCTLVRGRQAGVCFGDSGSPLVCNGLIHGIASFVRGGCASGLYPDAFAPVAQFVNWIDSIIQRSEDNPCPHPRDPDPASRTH
Method: The stability of PN5 in the presence of the enzyme was measured by treatment with elastase. First, 10 μg mL^−1 elastase in 0.1 M Tris-HCl (pH 8.0) was incubated with 50 μg PN5 at 37°C with shaking (180 rpm), with aliquots collected at 0, 30, 60, 120, 360, 540, and 720 min. After incubation, each sample was observed by RP-HPLC with a Jupiter C18 column (4.6 by 250 mm, 300 Å, 5 μm). E. coli 25922 and S. aureus 25923 were cultured in LB and TSB media with shaking (180 rpm) at 37°C, washed twice with 10 mM sodium phosphate buffer (pH 7.4), suspended in 10 mL LB and TSB media at 2 × 10^5 CFU mL^−1, mixed with 0.2% agarose, and dried for 1 h. Paper disks (6 mm) were placed on the dried agarose, and 50 μg PN5 aliquots was dropped onto the disks. The disks were stored in a 37°C incubator for 24 h. PN5- and elastase (10 μg mL^−1)-treated PN5 was prepared to evaluate the susceptibility to E. coli 25922 and S. aureus 25923. PN5 (6.25, 12.5, 25, 50, and 100 μg) was diluted in 10 mM sodium phosphate buffer (pH 7.4) and 10 μg mL^−1 elastase. E. coli 25922 and S. aureus 25923 were prepared at 2 × 10^5 CFU mL^−1. Peptides with 10 μg mL^−1 elastase and bacteria were incubated for 9 h with shaking (180 rpm) and observed using a visible spectrophotometer (Pharmacia Biotech, Uppsala, Sweden) ([60]).

[1] = tested on: L. monocytogenes KCTC 3710; format: cell-based, Listeria monocytogenes; conditions: microdilution, BHI, 18 to 24 h, 37°C, three independent experiments
Method: as §1

RAW 264.7 cells = assay: MTT cell viability; format: cell-based, mouse; conditions: up to 200 μM, 24 h
Method: (§2) RAW 264.7 cells (mouse macrophage cells) were maintained in high-glucose Dulbecco’s modified Eagle medium (DMEM) (Welgene, Daegu, South Korea) supplemented with 10% fetal bovine serum (FBS) (Gibco) and 1% penicillin at 37°C in humidified 5% CO2. Cells (2 × 10^5 cells well^−1) were seeded into DMEM supplemented with 10% FBS medium in a 96-well plate. The MTT assay was performed after culturing the cells in 96-well plates at a density of 2 × 10^5 cells well^−1, followed by treatment with serially diluted PN5, magainin 2, and melittin. After 24 h, the medium was discarded, and 100 μL DMEM and 10% FBS medium containing 0.5 mg mL^−1 MTT were added to each well. After 4 h of incubation, the medium was discarded and dimethyl sulfoxide was added to each well to solubilize the formazan. The optical densities at 570 and 650 nm (OD570 and OD650, respectively) of the treated cells were compared to those of control cells. The hemolytic activity of the peptides was evaluated as the release of hemoglobin from an 8% mRBC suspension. A 100-μL aliquot of the 8% mRBC suspension was added to the wells of a 96-well plate, and 100 μL of peptide solution in phosphate-buffered saline (PBS) was added at a final peptide concentration of 200 μM. After incubation for 1 h at 37°C with shaking (50 rpm), the suspensions were centrifuged at 1,000 × g for 5 min. The absorbance of the supernatant was measured at 414 nm using a Versa Max microplate reader (Molecular Devices). As a control, no hemolysis and complete hemolysis were determined in PBS and 0.1% Triton X-100, respectively. The degree of hemolysis was calculated using the following equation as described in reference: %hemolysis=[(A414withpeptide-A414withPBS)/(A414with0.1%TritonX-100-A414 with PBS)] × 100

S. Typhimurium KCTC 1926 = format: cell-based, Salmonella enterica serovar Typhimurium; conditions: microdilution, NB, 18 to 24 h, 37°C, three independent experiments
Method: as §1

mouse red blood cells = assay: Hemolytic activity; format: cell-based; conditions: 200 μM; 8% mouse red blood cells, 1 h, 37°C
Method: as §2

FKFLARTGKFL-NH2 [PN5]
MIC (A. baumannii KCTC 2508): 4 µM | peak of residual peptide after incubation with elastase (elastase): remained even after 9 h | MIC [1]: 16 µM | toxicity, MTT assay (RAW 264.7 cells): did not show toxicity | MIC (S. Typhimurium KCTC 1926): 2 µM | hemolysis (mouse red blood cells): did not induce hemolysis
